Data as given in paper PMC5218480 (PLoS ONE, 2017).

Tested on: MV-4-11 cells
Assay: Gene expression microarray analysis (Affymetrix PrimeView) and GSEA
Assay type: cell-based, human
Design: RFU PODN (11730768_x_at) / Fold change /veh PODN (11730768_x_at) / RFU LINC00158 (11744669_a_at) / Fold change /veh LINC00158 (11744669_a_at) / RFU DUSP10 (11751237_a_at) / Fold change /veh DUSP10 (11751237_a_at) / RFU ID3 (11757404_x_at) / Fold change /veh ID3 (11757404_x_at) / RFU PLEKHG5 (11737974_s_at) / Fold change /veh PLEKHG5 (11737974_s_at) / RFU LRRC4B (11730491_at) / Fold change /veh LRRC4B (11730491_at) / RFU GIMAP4 (11747438_a_at) / Fold change /veh GIMAP4 (11747438_a_at) / RFU KRT8 (11758183_x_at) / Fold change /veh KRT8 (11758183_x_at) / RFU CNN1 (11734310_a_at) / Fold change /veh CNN1 (11734310_a_at) / RFU VPS37D (11726825_at) / Fold change /veh VPS37D (11726825_at) / RFU C10orf10 (11716522_x_at) / Fold change /veh C10orf10 (11716522_x_at) / RFU KIR2DL2 /// KIR2DL4 /// KIR2DL5A /// KIR2DL5B /// KIR2DS1 /// KIR2DS2 /// KIR2DS3 /// KIR2DS4 /// KIR3DL3 /// KIR3DL3 /// KIR3DS1 (11738374_at) / Fold change /veh KIR2DL2 /// KIR2DL4 /// KIR2DL5A /// KIR2DL5B /// KIR2DS1 /// KIR2DS2 /// KIR2DS3 /// KIR2DS4 /// KIR3DL3 /// KIR3DL3 /// KIR3DS1 (11738374_at) / RFU C1QL1 (11718748_at) / Fold change /veh C1QL1 (11718748_at) / RFU TMPRSS4 (11747572_a_at) / Fold change /veh TMPRSS4 (11747572_a_at) / RFU HAMP (11756126_x_at) / Fold change /veh HAMP (11756126_x_at) / RFU RNFT2 (11725882_a_at) / Fold change /veh RNFT2 (11725882_a_at) / RFU NR4A2 (11747474_a_at) / Fold change /veh NR4A2 (11747474_a_at) / RFU ABCC12 (11746883_a_at) / Fold change /veh ABCC12 (11746883_a_at) / RFU TMEM136 (11760407_x_at) / Fold change /veh TMEM136 (11760407_x_at) / RFU CLDN22 /// WWC2 (11732394_at) / Fold change /veh CLDN22 /// WWC2 (11732394_at) / RFU HLA-DPB1 (11760878_x_at) / Fold change /veh HLA-DPB1 (11760878_x_at) / RFU SPINT1 (11716480_a_at) / Fold change /veh SPINT1 (11716480_a_at) / RFU GAP43 (11754022_s_at) / Fold change /veh GAP43 (11754022_s_at) / RFU A4GNT (11735810_at) / Fold change /veh A4GNT (11735810_at) / RFU PRB3 (11715151_x_at) / Fold change /veh PRB3 (11715151_x_at) / RFU TUBB4B (11761932_at) / Fold change /veh TUBB4B (11761932_at) / RFU CAPN14 (11732068_a_at) / Fold change /veh CAPN14 (11732068_a_at) / RFU TMCC2 (11721928_a_at) / Fold change /veh TMCC2 (11721928_a_at) / RFU IRGQ (11745062_a_at) / Fold change /veh IRGQ (11745062_a_at) / RFU FAM174B (11720279_a_at) / Fold change /veh FAM174B (11720279_a_at) / RFU TMPRSS4 (11748680_a_at) / Fold change /veh TMPRSS4 (11748680_a_at) / RFU FAM212B (11763350_a_at) / Fold change /veh FAM212B (11763350_a_at) / RFU PLEKHG5 (11743358_a_at) / Fold change /veh PLEKHG5 (11743358_a_at) / RFU ZSCAN30 (11745921_a_at) / Fold change /veh ZSCAN30 (11745921_a_at) / RFU CMKLR1 (11741424_a_at) / Fold change /veh CMKLR1 (11741424_a_at) / RFU LOC101060620 /// MAPK8IP1 (11723275_at) / Fold change /veh LOC101060620 /// MAPK8IP1 (11723275_at) / RFU SPTSSB (11747773_x_at) / Fold change /veh SPTSSB (11747773_x_at) / RFU PRSS12 (11739890_at) / Fold change /veh PRSS12 (11739890_at) / RFU BIN1 (11741810_x_at) / Fold change /veh BIN1 (11741810_x_at) / RFU WNT11 (11732464_a_at) / Fold change /veh WNT11 (11732464_a_at) / RFU C10orf10 (11716521_a_at) / Fold change /veh C10orf10 (11716521_a_at) / RFU C5orf56 (11738089_at) / Fold change /veh C5orf56 (11738089_at) / RFU CYB561 (11721691_x_at) / Fold change /veh CYB561 (11721691_x_at) / RFU ANKRD19P (11752326_a_at) / Fold change /veh ANKRD19P (11752326_a_at) / RFU OR2T12 /// OR2T33 /// OR2T8 (11738714_s_at) / Fold change /veh OR2T12 /// OR2T33 /// OR2T8 (11738714_s_at) / RFU VCAN (11748164_a_at) / Fold change /veh VCAN (11748164_a_at) / RFU JSRP1 (11732532_at) / Fold change /veh JSRP1 (11732532_at) / RFU KRTAP10-11 (11738290_x_at) / Fold change /veh KRTAP10-11 (11738290_x_at) / RFU MYO3A (11730013_a_at) / Fold change /veh MYO3A (11730013_a_at) / RFU EBF3 (11725865_a_at) / Fold change /veh EBF3 (11725865_a_at) / RFU CAMK2N1 (11719241_x_at) / Fold change /veh CAMK2N1 (11719241_x_at) / RFU C5orf56 (11738088_a_at) / Fold change /veh C5orf56 (11738088_a_at) / RFU OLFML3 (11715873_a_at) / Fold change /veh OLFML3 (11715873_a_at) / RFU LOC100653217 /// NTM (11731650_a_at) / Fold change /veh LOC100653217 /// NTM (11731650_a_at) / RFU MAPK11 (11762145_a_at) / Fold change /veh MAPK11 (11762145_a_at) / RFU FIZ1 (11724087_x_at) / Fold change /veh FIZ1 (11724087_x_at) / RFU OASL (11726364_x_at) / Fold change /veh OASL (11726364_x_at) / RFU SOX15 (11748057_x_at) / Fold change /veh SOX15 (11748057_x_at) / RFU CD79A (11719716_a_at) / Fold change /veh CD79A (11719716_a_at) / RFU HIST1H1D (11736915_at) / Fold change /veh HIST1H1D (11736915_at) / RFU CASKIN2 (11723855_a_at) / Fold change /veh CASKIN2 (11723855_a_at) / RFU LOC730098 (11760151_x_at) / Fold change /veh LOC730098 (11760151_x_at) / RFU OR4N2 (11742367_at) / Fold change /veh OR4N2 (11742367_at) / RFU PRRT2 (11749266_a_at) / Fold change /veh PRRT2 (11749266_a_at) / RFU SNX32 (11753110_a_at) / Fold change /veh SNX32 (11753110_a_at) / RFU CDHR5 (11726645_a_at) / Fold change /veh CDHR5 (11726645_a_at) / RFU RCAN1 (11760418_a_at) / Fold change /veh RCAN1 (11760418_a_at) / RFU FAM167A (11723789_a_at) / Fold change /veh FAM167A (11723789_a_at) / RFU FAM26E (11764081_at) / Fold change /veh FAM26E (11764081_at) / RFU ISYNA1 (11749810_s_at) / Fold change /veh ISYNA1 (11749810_s_at) / RFU ACY1 (11761880_at) / Fold change /veh ACY1 (11761880_at) / RFU 11764098_at / Fold change /veh 11764098_at / RFU SAMD14 (11745864_x_at) / Fold change /veh SAMD14 (11745864_x_at) / RFU NPB (11741838_a_at) / Fold change /veh NPB (11741838_a_at) / RFU TMPRSS6 (11731388_a_at) / Fold change /veh TMPRSS6 (11731388_a_at) / RFU KRTAP10-2 (11738614_at) / Fold change /veh KRTAP10-2 (11738614_at) / RFU ARHGAP8 /// PRR5-ARHGAP8 (11727945_x_at) / Fold change /veh ARHGAP8 /// PRR5-ARHGAP8 (11727945_x_at) / RFU KRTAP5-7 /// NADSYN1 (11734609_at) / Fold change /veh KRTAP5-7 /// NADSYN1 (11734609_at) / RFU RASL12 (11751679_a_at) / Fold change /veh RASL12 (11751679_a_at) / RFU CDKN2B (11736163_a_at) / Fold change /veh CDKN2B (11736163_a_at) / RFU PRF1 (11729649_at) / Fold change /veh PRF1 (11729649_at) / RFU, ZNF638 /// ZNF638-IT1 / Fold change vs veh, ZNF638 /// ZNF638-IT1 / RFU, PANK3 / Fold change vs veh, PANK3 / RFU, SH3YL1 / Fold change vs veh, SH3YL1 / RFU, ZEB2 / Fold change vs veh, ZEB2 / RFU, NRIP1 / Fold change vs veh, NRIP1 / RFU, PTTG1IP / Fold change vs veh, PTTG1IP / RFU, CAPN2 / Fold change vs veh, CAPN2 / RFU, MED14 / Fold change vs veh, MED14 / RFU, SNORA58 / Fold change vs veh, SNORA58 / RFU, C1orf63 / Fold change vs veh, C1orf63 / RFU, LRRFIP1 / Fold change vs veh, LRRFIP1 / RFU, NDUFAF7 / Fold change vs veh, NDUFAF7 / RFU, SLC12A2 / Fold change vs veh, SLC12A2 / RFU, IBTK / Fold change vs veh, IBTK / RFU, ESF1 / Fold change vs veh, ESF1 / Fold change vs veh, TMEM50B / RFU, TAOK1 / Fold change vs veh, TAOK1 / RFU, ACBD3 / Fold change vs veh, ACBD3 / RFU, TMA16 / Fold change vs veh, TMA16 / RFU, RWDD3 / Fold change vs veh, RWDD3 / RFU, BCAT1 / Fold change vs veh, BCAT1 / RFU, EDEM3 / Fold change vs veh, EDEM3 / RFU, TMEM33 / Fold change vs veh, TMEM33 / RFU, WDR75 / Fold change vs veh, WDR75 / RFU, AHCTF1 / Fold change vs veh, AHCTF1 / RFU, TFRC / Fold change vs veh, TFRC / RFU, ZDHHC17 / Fold change vs veh, ZDHHC17 / RFU, NOM1 / Fold change vs veh, NOM1 / RFU, ARL8B / Fold change vs veh, ARL8B / RFU, ZBTB11 / Fold change vs veh, ZBTB11 / RFU, TAMM41 / Fold change vs veh, TAMM41 / RFU, KIAA1704 /// LOC100996395 / Fold change vs veh, KIAA1704 /// LOC100996395 / RFU, ING1 / Fold change vs veh, ING1 / RFU, TRMT61B / Fold change vs veh, TRMT61B / RFU, FUBP3 / Fold change vs veh, FUBP3 / RFU, TP53 / Fold change vs veh, TP53 / RFU, TNKS2 / Fold change vs veh, TNKS2 / RFU, ZFP14 / Fold change vs veh, ZFP14 / RFU, ACTR2 / Fold change vs veh, ACTR2 / RFU, PPP3R1 / Fold change vs veh, PPP3R1 / RFU, PIK3R1 / Fold change vs veh, PIK3R1 / RFU, HNRNPA1 / Fold change vs veh, HNRNPA1 / RFU, RNF170 / Fold change vs veh, RNF170 / RFU, ZNF28 / Fold change vs veh, ZNF28 / RFU, RNGTT / Fold change vs veh, RNGTT / RFU, OGT / Fold change vs veh, OGT / RFU, BRD1 / Fold change vs veh, BRD1 / RFU, MARS / Fold change vs veh, MARS / RFU, ZNF655 / Fold change vs veh, ZNF655 / RFU, FAHD1 / Fold change vs veh, FAHD1 / RFU, BDP1 / Fold change vs veh, BDP1 / RFU, LRRCC1 / Fold change vs veh, LRRCC1 / RFU, ARID1A / Fold change vs veh, ARID1A / RFU, ZNF146 / Fold change vs veh, ZNF146 / RFU, ZNF330 / Fold change vs veh, ZNF330 / RFU, GPN3 / Fold change vs veh, GPN3 / RFU, C9orf123 / Fold change vs veh, C9orf123 / RFU, N4BP2L2 / Fold change vs veh, N4BP2L2 / RFU, ARFIP1 / Fold change vs veh, ARFIP1 / RFU, FAM179B / Fold change vs veh, FAM179B / RFU, BCL10 / Fold change vs veh, BCL10 / RFU, UHRF1BP1L / Fold change vs veh, UHRF1BP1L / RFU, BET1 / Fold change vs veh, BET1 / RFU, CNOT2 / Fold change vs veh, CNOT2 / RFU, ZNF268 / Fold change vs veh, ZNF268 / Fold change vs veh, ZNF507 / RFU, DGCR2 / Fold change vs veh, DGCR2 / RFU, WDSUB1 / Fold change vs veh, WDSUB1 / Fold change vs veh, HSP90B1 /// MIR3652 / RFU, ADSS / Fold change vs veh, ADSS / RFU, GK / Fold change vs veh, GK / RFU, ZNF148 / Fold change vs veh, ZNF148 / RFU, TAF9 / Fold change vs veh, TAF9 / RFU, SLC1A5 / Fold change vs veh, SLC1A5 / RFU, SLMO2 / Fold change vs veh, SLMO2 / RFU, ABCC4 / Fold change vs veh, ABCC4 / RFU, LOC101060439 /// RAP1B / Fold change vs veh, LOC101060439 /// RAP1B / RFU, RFX7 / Fold change vs veh, RFX7 / RFU, GTPBP10 / Fold change vs veh, GTPBP10 / RFU, CNEP1R1 / Fold change vs veh, CNEP1R1 / RFU, BIVM-ERCC5 /// ERCC5 / Fold change vs veh, BIVM-ERCC5 /// ERCC5 / RFU, ILF3 / Fold change vs veh, ILF3 / RFU 11762660_at / Fold change /veh 11762660_at / RFU VCAN (11757783_s_at) / Fold change /veh VCAN (11757783_s_at) / RFU DDX43 (11728927_at) / Fold change /veh DDX43 (11728927_at) / RFU KRT8 (11758188_x_at) / Fold change /veh KRT8 (11758188_x_at) / RFU NKD1 (11759106_at) / Fold change /veh NKD1 (11759106_at) / RFU SRD5A1 (11742802_a_at) / Fold change /veh SRD5A1 (11742802_a_at) / RFU TPSAB1 /// TPSB2 (11721975_s_at) / Fold change /veh TPSAB1 /// TPSB2 (11721975_s_at) / RFU GSTM3 (11746129_a_at) / Fold change /veh GSTM3 (11746129_a_at) / RFU IL23R (11737362_x_at) / Fold change /veh IL23R (11737362_x_at) / RFU TMEM51 (11727254_a_at) / Fold change /veh TMEM51 (11727254_a_at) / RFU PIWIL2 (11732686_x_at) / Fold change /veh PIWIL2 (11732686_x_at) / RFU ORM1 (11744905_x_at) / Fold change /veh ORM1 (11744905_x_at) / RFU CCDC152 (11743942_at) / Fold change /veh CCDC152 (11743942_at) / RFU ECM1 (11717891_a_at) / Fold change /veh ECM1 (11717891_a_at) / RFU IL23R (11748794_a_at) / Fold change /veh IL23R (11748794_a_at) / RFU TNFAIP8L3 (11732012_x_at) / Fold change /veh TNFAIP8L3 (11732012_x_at) / RFU MBOAT4 (11741988_at) / Fold change /veh MBOAT4 (11741988_at) / RFU 11764193_at / Fold change /veh 11764193_at / RFU TMEM53 (11763286_at) / Fold change /veh TMEM53 (11763286_at) / RFU MAGEB2 (11727129_at) / Fold change /veh MAGEB2 (11727129_at) / RFU TMEM200A (11744735_a_at) / Fold change /veh TMEM200A (11744735_a_at) / RFU CCDC152 (11751479_a_at) / Fold change /veh CCDC152 (11751479_a_at) / RFU FAM211A (11726209_a_at) / Fold change /veh FAM211A (11726209_a_at) / RFU RGS16 (11746705_a_at) / Fold change /veh RGS16 (11746705_a_at) / RFU VCAN (11755009_s_at) / Fold change /veh VCAN (11755009_s_at) / RFU RHOB (11743442_s_at) / Fold change /veh RHOB (11743442_s_at) / RFU RGS16 (11720943_a_at) / Fold change /veh RGS16 (11720943_a_at) / RFU RGS16 (11720944_at) / Fold change /veh RGS16 (11720944_at) / RFU, VPS4B / Fold change vs veh, VPS4B / RFU, CREB1 / Fold change vs veh, CREB1 / RFU, DNAJC13 / Fold change vs veh, DNAJC13 / RFU, GNAQ / Fold change vs veh, GNAQ / RFU, CDK5R1 / Fold change vs veh, CDK5R1 / RFU, ZRANB3 / Fold change vs veh, ZRANB3 / RFU, CUL4A / Fold change vs veh, CUL4A / RFU, CCNY / Fold change vs veh, CCNY / RFU, UFL1 / Fold change vs veh, UFL1 / RFU, COG3 / Fold change vs veh, COG3 / RFU, DIAPH2 / Fold change vs veh, DIAPH2 / RFU, SKA2 / Fold change vs veh, SKA2 / RFU, AFF3 / Fold change vs veh, AFF3 / RFU, LMF1 / Fold change vs veh, LMF1 / RFU, IPO11 / Fold change vs veh, IPO11 / RFU, DFFB / Fold change vs veh, DFFB / RFU, FOXP1 / Fold change vs veh, FOXP1 / RFU, CARD8 / Fold change vs veh, CARD8 / RFU, STRN3 / Fold change vs veh, STRN3 / RFU, ADK / Fold change vs veh, ADK / RFU, RASSF2 / Fold change vs veh, RASSF2 / RFU, WIPF1 / Fold change vs veh, WIPF1 / RFU, LARP1B / Fold change vs veh, LARP1B / RFU, RASA1 / Fold change vs veh, RASA1 / RFU, RB1 / Fold change vs veh, RB1 / RFU, PPFIA1 / Fold change vs veh, PPFIA1 / RFU, MAT2A / Fold change vs veh, MAT2A / RFU, CCT5 / Fold change vs veh, CCT5 / RFU, WDR92 / Fold change vs veh, WDR92 / RFU, CUX1 / Fold change vs veh, CUX1 / RFU, TTC7A / Fold change vs veh, TTC7A / RFU, TMEM135 / Fold change vs veh, TMEM135 / RFU, DEPTOR / Fold change vs veh, DEPTOR / RFU, CPM / Fold change vs veh, CPM / RFU, DNAJB6 / Fold change vs veh, DNAJB6 / RFU, CACNA2D3 / Fold change vs veh, CACNA2D3 / RFU, DTX4 / Fold change vs veh, DTX4 / RFU, TFCP2 / Fold change vs veh, TFCP2 / RFU, GMCL1 /// GMCL1P1 / Fold change vs veh, GMCL1 /// GMCL1P1 / RFU, AEBP2 / Fold change vs veh, AEBP2 / RFU, SNHG1 /// SNORD22 /// SNORD25 /// SNORD26 /// SNORD27 /// SNORD28 /// SNORD29 /// SNORD31 / Fold change vs veh, SNHG1 /// SNORD22 /// SNORD25 /// SNORD26 /// SNORD27 /// SNORD28 /// SNORD29 /// SNORD31 / Fold change (Aza/veh), C12orf56 (ProbeSet 11735607_a_at) / Fold change (ACY-1035/veh), C12orf56 (ProbeSet 11735607_a_at) / Fold change (Aza/veh), FGFR1OP (ProbeSet 11751329_s_at) / Fold change (ACY-1035/veh), FGFR1OP (ProbeSet 11751329_s_at) / Fold change (Aza/veh), VPS36 (ProbeSet 11739960_a_at) / Fold change (ACY-1035/veh), VPS36 (ProbeSet 11739960_a_at) / RFU SYPL1 (11715823_x_at) / Fold change /veh SYPL1 (11715823_x_at) / RFU IGFBP7 (11715501_s_at) / Fold change /veh IGFBP7 (11715501_s_at) / RFU REEP3 (11722064_at) / Fold change /veh REEP3 (11722064_at) / RFU IGLL1 (11728026_x_at) / Fold change /veh IGLL1 (11728026_x_at): dose or concentration left out as unconfirmed
Conditions: ProbeSet 11731093_s_at; LIST B

Structure (SMILES): Nc1ccc(-c2cccs2)cc1NC(=O)c1ccc2c(c1)cc(C1CC1)n2CCN1CCOCC1 [ACY-1035]
- RFU, BRD1: 190.44 RFU
